Measurements reported in patent US9624228B2, “Inhibitors of ERK and methods of use” (KURA ONCOLOGY, INC., priority 2013, dated 2017).

What follows are compounds tested against ERK2 enzyme (Homo sapiens (Human), UniProt P28482) (assay: Inhibition assay of ERK (Z'-LYTE kinase assay, Ser/Thr 3 peptide substrate)). Settings: In vitro ERK2 enzyme, 100 μM ATP.
Sequence of ERK2 enzyme (P28482 whole entry): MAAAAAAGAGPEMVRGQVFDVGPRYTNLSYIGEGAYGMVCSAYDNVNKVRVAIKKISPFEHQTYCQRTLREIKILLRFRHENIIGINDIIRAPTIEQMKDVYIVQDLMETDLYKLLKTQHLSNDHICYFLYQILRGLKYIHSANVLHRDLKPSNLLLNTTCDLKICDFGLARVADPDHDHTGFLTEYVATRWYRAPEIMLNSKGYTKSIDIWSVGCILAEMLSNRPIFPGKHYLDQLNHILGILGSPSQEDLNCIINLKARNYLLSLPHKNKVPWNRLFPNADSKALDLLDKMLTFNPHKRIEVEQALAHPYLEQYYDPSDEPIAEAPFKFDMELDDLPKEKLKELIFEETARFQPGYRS
Assay type: biochemical
Work on `COCCN1Cc2cc3c(-c4ccnc(C)c4)n[nH]c3cc2NC1=O` [Compound 52] yielded an IC50 of under 0.05 µM.
Work on `COc1ncc(-c2n[nH]c3cc4c(cc23)CN(Cc2cccc(C(F)(F)F)c2)C(=O)N4)cn1` [Compound 119] yielded an IC50 of under 0.05 µM.
For `Cc1cc(-c2n[nH]c3cc4c(cc23)CN(CCO)C(=O)N4)ccn1` [Compound 43], the IC50 was under 0.05 µM.
With `Cc1cc(-c2n[nH]c3cc4c(cc23)CN(Cc2cccc(C#N)c2)C(=O)N4)ccn1` [Compound 55] the IC50 was under 0.05 µM.
`COc1ncc(-c2n[nH]c3cc4c(cc23)CN(C)CC(=O)N4)cn1` [Compound 109] was tested, and the IC50 was over 1 µM.
`Cc1cc(-c2n[nH]c3cc4[nH]c(=O)c([C@H](C)c5ccccc5)cc4cc23)ccn1` [Compound 84] was tested, and the IC50 was under 0.05 µM.
`O=C1Nc2cc3[nH]nc(Br)c3cc2CN1Cc1cccc(Cl)c1` [Compound 25] was tested, and the IC50 was 0.25 to 1 µM.
Work on `COc1cc(-c2n[nH]c3cc4c(cc23)CN(Cc2ccc(F)c(Cl)c2)C(=O)N4)ccn1` [Compound 38] yielded an IC50 of under 0.05 µM.
`COc1ccc(-c2n[nH]c3cc4c(cc23)CN(Cc2cc(F)cc(F)c2)C(=O)N4)cn1` [Compound 92] was tested, and the IC50 was under 0.05 µM.
`Cc1cc(-c2n[nH]c3cc4c(cc23)CN([C@@H]2CCCN(Cc3ccccc3)C2)C(=O)N4)ccn1` [Compound 63] was tested, and the IC50 was under 0.05 µM.
Work on `COc1ncc(-c2n[nH]c3cc4c(cc23)CN([C@H](C)c2cccc(C#N)c2)C(=O)N4)cn1` [Compound 100] yielded an IC50 of under 0.05 µM.
`Cc1ccc(-c2n[nH]c3cc4c(cc23)CN(Cc2cccc(Cl)c2)C(=O)N4)cn1` [Compound 58] showed an IC50 of under 0.05 µM.
`COc1ncc(-c2n[nH]c3cc4c(cc23)CN(Cc2cccc(Cl)c2)C(=O)N4)cn1` [Compound 68] gave an IC50 of under 0.05 µM.
`Cc1cc(-c2n[nH]c3cc4c(cc23)CN([C@@H]2CCCOC2)C(=O)N4)ccn1` [Compound 49] gave an IC50 of under 0.05 µM.
Compound `Cc1cc(-c2n[nH]c3cc4c(cc23)CN(CCNCc2cccc(Cl)c2)C(=O)N4)ccn1` [Compound 176] has an IC50 of under 0.05 µM.
In the case of `Cc1cc(-c2n[nH]c3cc4c(cc23)CN([C@@H]2CCCN(c3cccc(Cl)c3)C2)C(=O)N4)ccn1` [Compound 174], the IC50 is reported as under 0.05 µM.
With `COc1ncc(-c2n[nH]c3cc4[nH]c(=O)c(C(C)c5cccc(Cl)c5)cc4cc23)cn1` (stereo not drawn) [Compound 129] the IC50 was 0.05 to 0.25 µM.
Compound `O=C1Nc2cc3[nH]nc(-c4cncnc4)c3cc2CN1Cc1cccc(Cl)c1` [Compound 123] has an IC50 of under 0.05 µM.
`Cc1cc(-c2n[nH]c3cc4c(cc23)CN([C@@H]2CCCN(CCC3CC3)C2)C(=O)N4)ccn1` [Compound 155] showed an IC50 of under 0.05 µM.
`CCC(c1ccccc1)c1cc2cc3c(-c4ccnc(C)c4)n[nH]c3cc2[nH]c1=O` (stereo not drawn) [Compound 64] was tested, and the IC50 was under 0.05 µM.
In the case of `COCCOCCN1Cc2cc3c(-c4ccnc(C)c4)n[nH]c3cc2NC1=O` [Compound 45], the IC50 is reported as under 0.05 µM.
`Cc1cc(-c2n[nH]c3cc4c(cc23)CN(Cc2cccc(Cl)c2)C(=O)N4)cc(C)n1` [Compound 77] was tested, and the IC50 was under 0.05 µM.
`Cc1cccc(-c2n[nH]c3cc4c(cc23)CN(Cc2cccc(Cl)c2)C(=O)N4)n1` [Compound 108] showed an IC50 of 0.05 to 0.25 µM.
Compound `COc1cccc(F)c1CN1CC[C@@H](N2Cc3cc4c(-c5ccnc(C)c5)n[nH]c4cc3NC2=O)C1` [Compound 162] has an IC50 of under 0.05 µM.
For `CCC(=O)NCCN1Cc2cc3c(-c4cnc(OC)nc4)n[nH]c3cc2NC1=O` [Compound 106], the IC50 was 0.05 to 0.25 µM.
`Cc1cc(-c2n[nH]c3cc4c(cc23)CN([C@@H]2CCCN(C3CCCCC3)C2)C(=O)N4)ccn1` [Compound 194] was tested, and the IC50 was 0.05 to 0.25 µM.
Compound `Cc1cc(-c2n[nH]c3cc4c(cc23)CN([C@@H]2CCCN(Cc3sc(C)nc3C)C2)C(=O)N4)ccn1` [Compound 195] has an IC50 of 0.05 to 0.25 µM.
`Cc1cc(-c2n[nH]c3cc4[nH]c(=O)c(C(C)C5CCCCC5)cc4cc23)ccn1` (stereo not drawn) [Compound 160] was tested, and the IC50 was 0.05 to 0.25 µM.
Compound `O=C1Nc2cc3[nH]nc(-c4ccnnc4)c3cc2CN1Cc1ccc(F)cc1` [Compound 97] has an IC50 of under 0.05 µM.
In the case of `COc1ncc(-c2n[nH]c3cc4c(cc23)CN([C@H](C)c2ccc(Cl)cc2)C(=O)N4)cn1` [Compound 95], the IC50 is reported as under 0.05 µM.
`Cc1cc(-c2n[nH]c3cc4c(cc23)CN(CCc2cccc(Cl)c2)C(=O)N4)ccn1` [Compound 50] was tested, and the IC50 was under 0.05 µM.
For `Cc1cc(-c2n[nH]c3cc4c(cc23)CN(CCN2CCOCC2)C(=O)N4)ccn1` [Compound 51], the IC50 was under 0.05 µM.
For `O=C1Nc2cc3[nH]nc(-c4cn[nH]c4)c3cc2CN1Cc1ccc(F)c(Cl)c1` [Compound 48], the IC50 was under 0.05 µM.
Compound `Cc1cc(-c2n[nH]c3cc4c(cc23)CN(CCc2ccc(F)cc2)CC(=O)N4)ccn1` [Compound 67] has an IC50 of 0.25 to 1 µM.
With `COc1ncc(-c2n[nH]c3cc4c(cc23)CN(Cc2cc(F)cc(F)c2)C(=O)N4)cn1` [Compound 88] the IC50 was under 0.05 µM.
`Cc1cc(-c2n[nH]c3cc4c(cc23)CN([C@@H]2CCCN(Cc3ccc(F)cc3F)C2)C(=O)N4)ccn1` [Compound 196] showed an IC50 of under 0.05 µM.
With `COc1ccc(-c2n[nH]c3cc4c(cc23)CN(Cc2ccc(F)c(Cl)c2)C(=O)N4)cn1` [Compound 36] the IC50 was under 0.05 µM.

Same assay, conditions: In vitro, ERK2 enzyme 0.47 ng/μL, 100 μM ATP
Work on `Cc1cc(-c2n[nH]c3cc4c(cc23)CN([C@@H]2CN(CC(F)(F)F)C[C@H]2C(F)(F)F)C(=O)N4)ccn1` [Compound 331] yielded an IC50 of under 0.05 µM.
`Cc1cc(-c2n[nH]c3cc4c(cc23)CN([C@@H]2CCN(CC(F)(F)F)C2)C(=O)N4)ccn1` [Compound 214] showed an IC50 of under 0.05 µM.
`Cc1cc(-c2n[nH]c3cc4c(cc23)CN([C@@H]2CCN(CC3CCCC3)C2)C(=O)N4)ccn1` [Compound 206] was tested, and the IC50 was 0.25 to 1 µM.
`Cc1cc(-c2n[nH]c3cc4c(cc23)CN([C@@H]2CN(C3CCOCC3)C[C@H]2c2ccccc2)C(=O)N4)ccn1` (mixture of isomers) [Compound 359] showed an IC50 of 0.05 to 0.25 µM.
`Cc1cc(-c2n[nH]c3cc4c(cc23)CN(C2CN(CC3CCCC3)CC(F)(F)C2)C(=O)N4)ccn1` (stereo not drawn) [Compound 201] was tested, and the IC50 was 0.25 to 1 µM.
In the case of `Cc1cc(-c2n[nH]c3cc4c(cc23)CN([C@@H]2CCN(c3ccc(F)cn3)C2)C(=O)N4)ccn1` [Compound 257], the IC50 is reported as 0.05 to 0.25 µM.
Work on `COc1ccc(-c2n[nH]c3cc4[nH]c(=O)c(C5CCCN(Cc6ccccc6)C5)cc4cc23)cn1` (stereo not drawn) [Compound 367] yielded an IC50 of 0.05 to 0.25 µM.
With `COc1ccc(-c2n[nH]c3cc4c(cc23)CN([C@@H]2CN(CC(F)(F)F)C[C@H]2c2ccccc2)C(=O)N4)cn1` [Compound 374] the IC50 was under 0.05 µM.
`COc1ccc(-c2n[nH]c3cc4c(cc23)CN([C@@H]2CCCN(Cc3ccccc3)C2)C(=O)N4)cn1` [Compound 272] showed an IC50 of under 0.05 µM.
For `CC(c1ccccc1)c1cc2cc3c(-c4ccncc4)n[nH]c3cc2[nH]c1=O` (stereo not drawn) [Compound 326], the IC50 was under 0.05 µM.
With `Cc1cc(-c2n[nH]c3cc4c(cc23)CN(CC2CCOCC2)C(=O)N4)ccn1` [Compound 211] the IC50 was under 0.05 µM.
In the case of `Cc1cc(-c2n[nH]c3cc4c(cc23)CN(C2CCCC2)C(=O)N4)ccn1` [Compound 205], the IC50 is reported as under 0.05 µM.
Work on `COc1ncc(-c2n[nH]c3cc4c(cc23)CN([C@@H]2CCCN(Cc3cccs3)C2)C(=O)N4)cn1` [Compound 295] yielded an IC50 of under 0.05 µM.
In the case of `Cc1cc(-c2n[nH]c3cc4c(cc23)CN([C@@H]2CCN(CCC(C)C)C2)C(=O)N4)ccn1` [Compound 207], the IC50 is reported as 0.05 to 0.25 µM.
`Cc1cc(-c2n[nH]c3cc4c(cc23)CN([C@@H]2CN(Cc3ccccc3)CC(F)(F)C2)C(=O)N4)ccn1` [Compound 263] was tested, and the IC50 was 0.25 to 1 µM.
For `Cc1cc(-c2n[nH]c3cc4c(cc23)CN([C@@H]2CN(CC(F)F)C[C@H]2c2ccccc2)C(=O)N4)ccn1` (mixture of isomers) [Compound 362], the IC50 was under 0.05 µM.
In the case of `Cc1cc(-c2n[nH]c3cc4[nH]c(=O)c(C5CCCN(Cc6ccccc6)C5)cc4cc23)ccn1` (stereo not drawn) [Compound 332], the IC50 is reported as under 0.05 µM.
Compound `Cc1cc(-c2n[nH]c3cc4c(cc23)CN(Cc2ccc(F)c(Cl)c2)C(=O)N4)cc(C)n1` [Compound 226] has an IC50 of under 0.05 µM.
`Cc1cc(-c2n[nH]c3cc4c(cc23)CN([C@H]2CCCN(Cc3ccccc3)C2)C(=O)N4)cc(C)n1` [Compound 363] gave an IC50 of under 0.05 µM.
Work on `Cc1cc(-c2n[nH]c3cc4c(cc23)CN([C@H]2CCN(CC(F)(F)F)C2)C(=O)N4)cc(C)n1` [Compound 310] yielded an IC50 of under 0.05 µM.
With `COc1ccc(-c2n[nH]c3cc4c(cc23)CN([C@@H]2CCCN(Cc3ccc(F)cc3F)C2)C(=O)N4)cn1` [Compound 273] the IC50 was under 0.05 µM.
`COc1ncc(-c2n[nH]c3cc4c(cc23)CN([C@@H]2CN(C)C[C@H]2c2ccccc2)C(=O)N4)cn1` (mixture of isomers) [Compound 355] showed an IC50 of under 0.05 µM.
For `Cc1cc(-c2n[nH]c3cc4c(cc23)CN([C@@H]2CN(CC(F)(F)F)C[C@H]2c2ccccc2)C(=O)N4)cc(C)n1` [Compound 339], the IC50 was under 0.05 µM.
With `Cc1cc(-c2n[nH]c3cc4c(cc23)CN([C@@H]2CCCN(C3CCCC3)C2)C(=O)N4)ccn1` [Compound 215] the IC50 was 0.05 to 0.25 µM.
For `COc1cc(-c2n[nH]c3cc4c(cc23)CN([C@@H]2CCCN(Cc3ccc(F)cc3F)C2)C(=O)N4)ccn1` [Compound 271], the IC50 was under 0.05 µM.
With `Cn1cc(-c2n[nH]c3cc4c(cc23)CN([C@@H]2CN(CC(F)(F)F)C[C@H]2c2ccccc2)C(=O)N4)ccc1=O` [Compound 346] the IC50 was under 0.05 µM.
`COc1ccc(-c2n[nH]c3cc4c(cc23)CN([C@@H]2CCN(CC(F)(F)F)C2)C(=O)N4)cn1` [Compound 277] gave an IC50 of under 0.05 µM.
`Cn1cc(-c2n[nH]c3cc4c(cc23)CN([C@@H]2CCCN(Cc3cccs3)C2)C(=O)N4)cn1` [Compound 298] showed an IC50 of under 0.05 µM.
`Cc1cc(-c2n[nH]c3cc4c(cc23)CN([C@@H]2CN(C)C[C@H]2c2ccc(F)cc2)C(=O)N4)cc(C)n1` (racemic) [Compound 305] gave an IC50 of 0.05 to 0.25 µM.
For `Cc1cc(-c2n[nH]c3cc4c(cc23)CN(Cc2cccs2)C(=O)N4)cc(C)n1` [Compound 227], the IC50 was under 0.05 µM.
Work on `Cc1cc(-c2n[nH]c3cc4c(cc23)CN(C2CN(Cc3cc(F)cc(F)c3)CC(F)(F)C2)C(=O)N4)ccn1` (stereo not drawn) [Compound 202] yielded an IC50 of 0.25 to 1 µM.
`Cc1cc(-c2n[nH]c3cc4c(cc23)CN([C@@H]2CCN(CC(F)(F)F)C2)C(=O)N4)cc(C)n1` [Compound 237] was tested, and the IC50 was under 0.05 µM.
With `COc1ncc(-c2n[nH]c3cc4c(cc23)CN([C@@H]2CN(CC(F)(F)F)C[C@H]2c2ccccc2)C(=O)N4)cn1` [Compound 348] the IC50 was under 0.05 µM.
`Nc1ncc(-c2n[nH]c3cc4c(cc23)CN([C@@H]2CN(CC(F)(F)F)C[C@H]2c2ccccc2)C(=O)N4)cn1` [Compound 351] showed an IC50 of under 0.05 µM.
With `COc1cc(-c2n[nH]c3cc4c(cc23)CN([C@@H]2CCCN(Cc3ccccc3)C2)C(=O)N4)ccn1` [Compound 270] the IC50 was under 0.05 µM.
